Among the data in patent US6639107B1, “Cyclopentyl sulfonamide derivatives” (Eli Lilly and Company, priority 1999, dated 2003) are melting point values, retold here.

As usually defined, the melting point is the temperature of the solid-liquid transition.

The compound `CC(C)S(=O)(=O)N[C@H]1CCC[C@@H]1c1ccc(Br)cc1` (racemic) [Example 48, (+,−) Trans Propane-2-sulfonic Acid [2-(4-bromo-phenyl)-cyclopentyl]-amide] gave a melting point of 128 to 130 °C.
